Experimental data published in patent publication US10654814B2, “Bicyclic hydroxamic acids useful as inhibitors of mammalian histone deacetylase activity” (KANCERA AB, priority 2015, dated 2020).
Where a name gives a salt, the structure may show the parent alone.

Molecular target: HDAC6 (Homo sapiens (Human), UniProt Q9UBN7)
Assay: HDAC6 in vitro enzymatic assay (fluorescence)
Assay type: biochemical
Conditions: Table 3; read-out: IC50 (nM) for inhibition of HDAC6
Experimental: Biological Tests Method for Measurement of Enzymatic Activity of HDACs Materials & Methods
All Examples were tested in HDAC1,2,3,6 and 8 in vitro enzymatic assays. The assay principle is well known (Hauser et al. 2009, Bradner et al. 2010) and all necessary reagents like enzymes, substrates, developer and reference compounds are commercially available (see e.g. BPS Biosciences http://www.bpsbioscience.com/). Stock solutions (10 mM in DMSO) of compounds were serially diluted 1:3 in 11 concentrations with a top concentration of 200 μM for HDAC1,2,3 and 2 μM for HDAC6 and HDAC8. The enzymatic reactions were conducted in a mixture containing assay buffer, bovine serum albumin, HDAC substrate, and a test compound. After enzymatic reaction, developer was added and after an additional incubation time, fluorescence intensity was measured at an excitation wavelength of 360 nm and an emission wavelength of 460 nm. All experiments were performed in duplicate.

Sequence of HDAC6 (Q9UBN7 whole entry): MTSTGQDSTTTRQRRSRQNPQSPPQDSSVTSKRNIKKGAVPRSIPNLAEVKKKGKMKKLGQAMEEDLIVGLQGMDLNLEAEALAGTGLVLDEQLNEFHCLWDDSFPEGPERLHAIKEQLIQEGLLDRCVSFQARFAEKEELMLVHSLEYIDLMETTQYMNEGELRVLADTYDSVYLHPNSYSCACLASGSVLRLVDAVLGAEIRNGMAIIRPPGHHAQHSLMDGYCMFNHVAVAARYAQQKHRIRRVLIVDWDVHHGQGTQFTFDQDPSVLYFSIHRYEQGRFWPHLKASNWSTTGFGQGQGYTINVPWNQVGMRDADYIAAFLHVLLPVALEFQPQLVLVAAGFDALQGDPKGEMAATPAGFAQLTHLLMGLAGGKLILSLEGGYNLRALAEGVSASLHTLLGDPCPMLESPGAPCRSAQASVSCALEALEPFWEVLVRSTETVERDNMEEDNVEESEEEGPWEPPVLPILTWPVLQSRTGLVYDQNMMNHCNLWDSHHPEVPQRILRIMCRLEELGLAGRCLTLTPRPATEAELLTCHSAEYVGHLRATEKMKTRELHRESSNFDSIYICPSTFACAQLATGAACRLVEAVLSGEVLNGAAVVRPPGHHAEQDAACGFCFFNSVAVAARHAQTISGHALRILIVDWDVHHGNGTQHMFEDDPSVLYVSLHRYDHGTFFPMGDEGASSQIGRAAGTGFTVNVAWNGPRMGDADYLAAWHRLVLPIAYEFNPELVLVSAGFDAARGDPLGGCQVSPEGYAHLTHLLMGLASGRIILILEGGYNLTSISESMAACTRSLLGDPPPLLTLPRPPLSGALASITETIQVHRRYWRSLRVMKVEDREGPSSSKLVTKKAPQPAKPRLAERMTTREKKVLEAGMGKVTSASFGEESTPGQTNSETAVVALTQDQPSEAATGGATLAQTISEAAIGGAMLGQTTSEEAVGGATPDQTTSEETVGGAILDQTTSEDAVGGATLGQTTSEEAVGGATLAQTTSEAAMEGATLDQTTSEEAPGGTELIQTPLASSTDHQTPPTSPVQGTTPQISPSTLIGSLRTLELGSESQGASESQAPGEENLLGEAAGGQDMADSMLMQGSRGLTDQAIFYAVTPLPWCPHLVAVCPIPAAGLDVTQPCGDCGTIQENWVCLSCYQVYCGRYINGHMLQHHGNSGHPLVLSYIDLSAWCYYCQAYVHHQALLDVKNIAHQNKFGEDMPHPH

Row | SMILES | IC50 [nM]
1 | O=C(NO)c1ccc2oc(N3CCC(Cc4ccccc4)CC3)nc2c1 [Example 48, 2-(4-benzylpiperidin-1-yl)-N-hydroxy-1,3-benzoxazole-5-carboxamide] | 73
2 | CC(C)c1ccc(-c2nc3ccc(C(=O)NO)cc3o2)cc1 [Example 49, N-Hydroxy-2-[4-(1-methylethyl)phenyl]-1,3-benzoxazole-6-carboxamide] | 9
3 | O=C(NO)c1ccc2nc(-c3ccc(F)cc3)oc2c1 [Example 50, 2-(4-Fluorophenyl)-N-hydroxy-1,3-benzoxazole-6-carboxamide] | 34
4 | CC(C)(C)c1ccc(-c2nc3ccc(C(=O)NO)cc3o2)cc1 [Example 51, 2-(4-tert-butylphenyl)-N-hydroxy-1,3-benzoxazole-6-carboxamide] | 22
5 | COc1ccc(-c2nc3ccc(C(=O)NO)cc3o2)cc1 [Example 52, N-hydroxy-2-(4-methoxyphenyl)-1,3-benzoxazole-6-carboxamide] | 17
6 | O=C(NO)c1ccc2nc(-c3ccc4[nH]nnc4c3)oc2c1 [Example 54, 2-(1H-Benzotriazol-5-yl)-N-hydroxy-1,3-benzoxazole-6-carboxamide] | 60
7 | O=C(NO)c1ccc2nc(-c3ccc(-c4cccnc4)nc3)oc2c1 [Example 55, 2-(2,3′-Bipyridin-5-yl)-N-hydroxy-1,3-benzoxazole-6-carboxamide trifluoroacetate] | 81
8 | CC(C)c1ccc(-c2nc3ncc(C(=O)NO)cc3[nH]2)cc1 [Example 57, N-Hydroxy-2-[4-(1-methylethyl)phenyl]-1H-imidzo[4,5-b]pyridine-6-carboxamide] | 11
9 | CC(C)c1ccc(-c2cc3cc(C(=O)NO)ccc3[nH]2)cc1 [Example 60, N-Hydroxy-2-[4-(1-methylethyl)phenyl]-1H-indole-5-carboxamide] | 62
10 | COc1ccc(-c2nc3cc(C(=O)NO)ccc3s2)cc1 [Example 78, N-hydroxy-2-(4-methoxyphenyl)-1,3-benzothiazole-5-carboxamide] | 12
11 | O=C(NO)c1ccc2sc(Cc3ccc(F)cc3)nc2c1 [Example 79, 2-(4-fluorobenzyl)-N-hydroxy-1,3-benzothiazole-5-carboxamide] | 7
12 | O=C(NO)c1ccc2sc(-c3cncc(Br)c3)nc2c1 [Example 80, 2-(5-Bromopyridin-3-yl)-N-hydroxy-1,3-benzothiazole-5-carboxamide] | 30
13 | COc1cccc2cc(-c3nc4cc(C(=O)NO)ccc4s3)oc12 [Example 81, N-Hydroxy-2-(7-methoxy-1-benzofuran-2-yl)-1,3-benzothiazole-5-carboxamide] | 33
14 | CCc1ccc(-c2nc3cc(C(=O)NO)ccc3s2)cc1 [Example 82, 2-(4-Ethylphenyl)-N-hydroxy-1,3-benzothiazole-5-carboxamide] | 11
15 | CC(C)c1ccc(-c2nc3cc(C(=O)NO)cnc3o2)cc1 [Example 83, N-Hydroxy-2-[4-(1-methylethyl)phenyl][1,3]oxazolo[5,4-b]pyridine-6-carboxamide] | 25
16 | CC(C)c1ccc(-c2cc3cc(C(=O)NO)cnc3[nH]2)cc1 [Example 84, N-Hydroxy-2-[4-(1-methylethyl)phenyl]-1H-pyrrolo[2,3-b]pyridine-5-carboxamide] | 19
17 | CC(C)c1ccc(-c2cc3cc(C(=O)NO)cnc3s2)cc1 [Example 87, N-Hydroxy-2-[4-(1-methylethyl)phenyl]thieno[2,3-b]pyridine-5-carboxamide] | 42
18 | COc1ccc(-c2cc3cc(C(=O)NO)ccc3s2)cc1 [Example 93, N-hydroxy-2-(4-methoxyphenyl)-1-benzothiophene-5-carboxamide] | 9
19 | O=C(NO)c1ccc2sc(-c3ccc4[nH]ccc4c3)cc2c1 [Example 95, N-hydroxy-2-(1H-indol-5-yl)-1-benzothiophene-5-carboxamide] | 22
20 | COc1ncccc1-c1cc2cc(C(=O)NO)ccc2s1 [Example 97, N-hydroxy-2-(2-methoxypyridin-3-yl)-1-benzothiophene-5-carboxamide] | 47

Second part, the molecule after the results:

Row | IC50 [nM] | SMILES
21 | 16 | Cn1cc(-c2cc3cc(C(=O)NO)ccc3s2)cn1 [Example 99, N-hydroxy-2-(1-methyl-1H-pyrazol-4-yl)-1-benzothiophene-5-carboxamide]
22 | 37 | O=C(NO)c1ccc2sc(-c3cc(F)ccc3O)cc2c1 [Example 105, 2-(5-fluoro-2-hydroxyphenyl)-N-hydroxy-1-benzothiophene-5-carboxamide]
23 | 86 | COc1ccc(F)cc1-c1cc2cc(C(=O)NO)ccc2s1 [Example 106, 2-(5-fluoro-2-methoxyphenyl)-N-hydroxy-1-benzothiophene-5-carboxyamide]
24 | 35 | CN(C)C(=O)c1ccc(-c2cc3cc(C(=O)NO)ccc3s2)cc1 [Example 108, 2-[4-(dimethylcarbamoyl)phenyl]-N-hydroxy-1-benzothiophene-5-carboxamide]
25 | 86 | CS(=O)(=O)Nc1ccc(-c2cc3cc(C(=O)NO)ccc3s2)cc1 [Example 109, N-hydroxy-2-{4-[(methylsulfonyl)amino]phenyl}-1-benzothiophene-5-carboxamide]
26 | 50 | CC(C)c1ccc(-c2cc3ncc(C(=O)NO)cc3s2)cc1 [Example 110, N-Hydroxy-2-[4-(1-methylethyl)phenyl]thieno[3,2-b]pyridine-6-carboxamide]
27 | 23 | CC(C)c1ccc(-c2cc3ncc(C(=O)NO)cc3o2)cc1 [Example 115, N-Hydroxy-2-[4-(1-methylethyl)phenyl]furo[3,2-b]pyridine-6-carboxamide]
28 | 74 | O=C(NO)c1ccc2cc(CO)oc2c1 [Example 119, N-hydroxy-2-(hydroxymethyl)-1-benzofuran-6-carboxamide]
29 | 7 | O=C(NO)c1ccc2nc(NCc3ccc(-c4ccccc4)cc3)[nH]c2c1 [Example 125, 2-(([1,1′-biphenyl]-4-ylmethyl)amino)-N-hydroxy-1H-benzo[d]imidazole-6-carboxamide]
30 | 85 | O=C(NO)c1ccc2nc(N3CCN(c4ccc(F)cc4)CC3)[nH]c2c1 [Example 126, 2-(4-(4-fluorophenyl)piperazin-1-yl)-N-hydroxy-1H-benzo[d]imidazole-6-carboxamide]
31 | 60 | O=C(NO)c1ccc2nc(NCc3ccccc3)[nH]c2c1 [Example 127, 2-(benzylamino)-N-hydroxy-1H-benzo[d]imidazole-6-carboxamide]
32 | 72 | O=C(NO)c1ccc2nc(Nc3cccc(-c4ccccc4)c3)[nH]c2c1 [Example 136, 2-([1,1′-biphenyl]-3-ylamino)-N-hydroxy-1H-benzo[d]imidazole-6-carboxamide]
33 | 39 | Cn1c(Nc2ccccc2)nc2cc(C(=O)NO)ccc21 [Example 137, N-Hydroxy-1-methyl-2-(phenylamino)-1H-benzimidazole-5-carboxamide]
34 | 22 | CC(C)c1ccc(Nc2nc3cc(C(=O)NO)ccc3n2C)cc1 [Example 138, N-hydroxy-2-((4-isopropylphenyl)amino)-1-methyl-1H-benzo[d]imidazole-5-carboxamide]
35 | 30 | CN(Cc1ccccc1)c1nc2cc(C(=O)NO)ccc2n1C [Example 139, 2-(benzyl(methyl)amino)-N-hydroxy-1-methyl-1H-benzo[d]imidazole-5-carboxamide]
